Source: patent publication USRE42700E1, “Induction of apoptosis in cancer cells” (Sanford-Burnham Medical Research Institute, priority 2001, dated 2011)

Experiments:
RARβ = RARβ (Homo sapiens, UniProt P10826); assay: activation of RARβ on the (TREpal)2-tk-CAT reporter construct; assay type: cell-based; conditions: 1.0 μM
[1] = system: leukemic blasts from patients (AML or CML in blast crisis); assay: apoptosis in primary cultures of patient leukemic blasts; assay type: cell-based, human
Experimental: Cell Growth: IL-3-transfected M07e cells have been described by Thacker, D. J., et al., Leukemia 8: 871-877 (1994). Cells were grown in RPMI supplemented with 5 percent heat-inactivated fetal bovine serum (FBS) and 25 μg/ml gentamycin in a […], 5% CO2, and 100% humidity environment. Leukemic cells were obtained from patients who met the criteria for the diagnosis of AML or CML in blast crisis (see Table 1). Studies were approved by the Wayne State University Institutional Review Board. Informed consent was obtained from all patients. Leukemic blasts from patients were isolated using Ficoll hypaque. Cells at the interface between plasma and red blood cells were diluted with sterile PBS, then layered over Ficoll hypaque (1.077 density), and the leukemic cells collected at the interface. The sample to be studied represented greater than 90% blasts. The patient leukemia samples were grown in RPMI medium supplemented with 10% FBS, gentamycin (25 μg/ml), IL-3 (20 ng/ml), SCF (25 ng/ml), GM-CSF (20 ng/ml) and G-CSF (20 ng/ml). Cell growth was assessed using a cell proliferation kit.
(§1) Apoptosis Quantification: Staining of apoptotic cells was performed as described by Gavreli, Y., et al., (J. Cell. Biol. 119: 493-501 (1992)) and Whitacre, C. M., et al., (Cancer Res. 55: 3697-3701 (1995)). After 3-Cl-AHPC treatment, cells were harvested, washed with PBS and resuspended at 1×10^6 cells/ml. Cell suspensions (50 μl) were stained with […] of acridine orange solution ([…]) in PBS in the dark. Cells displaying fragmented DNA were detected using a fluorescent microscope. Apoptotic cells were also detected using a kit. Cells that incorporated fluorescein labeled deoxyuridine triphosphate were detected using flow cytometry.

patient leukemic cells = assay: apoptosis of patient leukemic cells by tunnel assay and flow cytometry; assay type: cell-based, human; conditions: for apoptotic cells: 1 μM, 24 hours
Experimental: as §1
Flow Cytometry: Flow cytometry was performed on a flow cytometer equipped with an argon ion laser tuned to 15 mW at […] for fluorescence excitation and light scattering. Fluorescein isothiocyanate (FITC) fluorescence was detected using a 530/30 nm band pass filter and propidium iodide (PI) fluorescence was reflected with a 560-nm short pass dichroic filter using a 585/42-nm band pass filter. The doublet discrimination module was used to identify cell aggregates (Sharpless, T., et al., Acta Cytologica 19: 577-581 (1975)). Typically, 20,000 events of list mode data were saved and analyzed.

[2] = system: leukemic blasts from patient 1; assay: leukemia colony formation in methylcellulose; assay type: cell-based, human; conditions: 14 days
Experimental: Leukemia Colony Formation: Leukemic blasts (1×10^5 cells) from patient 1 (Table 1) were isolated as described above and cultured in methylcellulose supplemented with 20% FCS, SCF, and IL-3, GM-CSF and G-CSF at a final concentration of 10 ng per ml, cells were incubated for 14 days at 37° C. in a 5% CO2 humidified atmosphere in the presence and absence of 3-Cl-AHPC after which time colonies (>40 cells) were counted.

[3] = system: committed marrow stem cells (CFU-GM); assay: CFU-GM colony formation (species not stated); assay type: cell-based; conditions: concentrations which completely inhibited leukemic colony formation
Experimental: CFU-GM Colony Formation: The CFU-GM colony assay was performed as described in Parchment et al., (J. Natl. Cancer Inst. 86: 273-280 (1994)).

[4] = system: PARP in M07e cells and patient leukemic blasts; assay: PARP cleavage by Western blot; assay type: cell-based, human; conditions: 1 μM, by 24 hours
Experimental: (§2) Western Blots: Western blots were performed according to the protocol of Sheikh, M. S., et al., (Oncogene, 9: 3407-3415 (1994)). Logarithmically growing cells were treated with 3-Cl-AHPC for various times and cells were harvested and lysed in Laemmli lysis buffer (0.5 M Tris-HCl, pH 6.8, 0.002M EDTA, 10% glycerol, 10% sodium dodecyl sulfate (SDS), and 5% β-mercaptoethanol). Protein lysates (50 μg/lane) were electrophoresed on 12% SDS-polyacrylamide gels and transferred to nitrocellulose membranes. Membranes were blocked with 5% nonfat dried milk in PBS/0.5% Tween 20 and then incubated with the appropriate antibodies. Horseradish peroxidase-conjugated rabbit anti-mouse IgG was used as the secondary antibody, and bands were developed using the Amersham ECL non-radioactive method.

[5] = system: Bcl-2 and Mcl-1 in patient leukemic cells and M07e cells; assay: Bcl-2 and Mcl-1 expression; assay type: cell-based, human; conditions: during 3-Cl-AHPC-mediated apoptosis
Experimental: as §2

MCF-7 = assay: apoptosis induction / cell death in breast cancer cells; assay type: cell-based, human
[6] = system: human MX-1 breast adenocarcinoma cells; assay: MX-1 human mammary adenocarcinoma growth in SCID mice; assay type: in vivo

Chain of RARβ (P10826 whole entry, species assumed): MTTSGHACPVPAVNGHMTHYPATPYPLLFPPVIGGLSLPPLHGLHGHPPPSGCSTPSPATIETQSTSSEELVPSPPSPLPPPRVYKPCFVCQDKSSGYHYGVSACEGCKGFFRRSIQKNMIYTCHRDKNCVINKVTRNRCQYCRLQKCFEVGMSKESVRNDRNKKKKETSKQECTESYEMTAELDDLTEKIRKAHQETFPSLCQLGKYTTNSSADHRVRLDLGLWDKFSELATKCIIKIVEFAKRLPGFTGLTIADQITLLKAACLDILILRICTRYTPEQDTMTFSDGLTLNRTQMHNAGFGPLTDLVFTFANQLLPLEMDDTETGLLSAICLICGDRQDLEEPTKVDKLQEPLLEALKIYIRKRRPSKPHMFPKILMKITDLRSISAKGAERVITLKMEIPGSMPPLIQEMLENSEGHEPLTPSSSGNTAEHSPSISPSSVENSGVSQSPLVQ

## O=C(O)/C=C/c1ccc(-c2ccc(O)c(C34CC5CC(CC(C5)C3)C4)c2)c(Cl)c1 [Example 3-Cl-AHPC, (E)-4-[3-(1-Adamantyl)-4-hydroxyphenyl]-3-chlorocinnamic acid]
RARβ
  activation of RARβ: does not activate
[1]; 0.5 μM
  apoptosis of leukemic blasts: 60%
[1]; 1 μM, 11 primary cultures
  induction of apoptosis: > 80%
[1]; 0.2 and 0.1 μM
  apoptosis of leukemic blasts: minimal apoptosis
[1]; non-APL AML samples
  proliferation and apoptosis of primary human AML cultures (FIG. 13): inhibited the proliferation and induced apoptosis
[1]; patient leukemic cells
  concentration required to induce apoptosis: 0.5 µM
Patient leukemic cells
  patient leukemic cells that underwent apoptosis: over 80%
Patient leukemic cells; patient 1
  apoptotic cells: 67%
Patient leukemic cells; patient 10
  apoptotic cells: 80%
[2]
  concentration for complete inhibition of leukemia colony formation: 600 nM
[2]; Homo sapiens, 336 h, patient 1, read-out: inhibition of leukemia colony formation, ED50 (IC50)
  IC50: 375 nM
[3]
  inhibition of CFU-GM colony formation: 30%
[4]
  PARP cleavage: rapid cleavage of 116-Kd PARP
[5]
  modulation of Bcl-2 and Mcl-1 expression: no modulation of their expression
MCF-7
  ED50 (concentration that results in 50% cell death): 850 nM
[6]; dose not stated (Table 5)
  animal deaths: no animal deaths
  inhibition of tumor growth: 70%
  weight loss: less than 4%
[6]; total dose 91 mg/kg, Qd (3-9)
  % body wt loss: −2%
  Drug deaths: 0/5
  T/C %: 62%
[6]; total dose 140 mg/kg, Qd (3-9)
  % body wt loss: −4%
  Drug deaths: 0/5
  T/C %: 56%
[6]; total dose 210 mg/kg, Qd (3-9)
  % body wt loss: −4%
  Drug deaths: 0/5
  Log cell kill: 1.2
  T/C %: 30%
